Measured values: US20140323575A1, “TYROSINE ISOMERS AS THERAPEUTIC AGENTS” (CONSEJO NACIONAL DE INVESTIGACIONES CIENTIFICAS Y TECNICAS …, priority 2011, published 2014)
Values after ≈ are worked out from the molar mass of the structure shown.

Legend:
[1] = tested on: LB tumor cells; assay: In vitro LB tumor cell proliferation ([3H]-thymidine uptake); type: cell-based, mice; settings: for IC50: Mus musculus, substance alone, read-out: GIU50/mL on in vitro LB tumor cell proliferation; for reversibility of the inhibitory effect: after 18 hours of culture, old medium replaced by fresh medium
Protocol: Each point (percentage of cpm incorporated by LB cells as compared with the control) represents the mean±SE of 3 experiments. Significance versus control, meta-tyrosine and peak 2: P<0.001 at >2.75 μg/mL; peak 2: P<0.05 at 2.75 μg/mL. ortho-tyrosine P<0.001 at 500 to 125 μg/mL; P<0.002 at 30 μg/mL. Peak 3: P<0.002 and P<0.01, at 31 and 15.5 μg/mL, respectively. Rescue of in vitro LB tumor inhibition mediated by meta-tyrosine (150 μg/mL)(B) or ortho-tyrosine (150 μg/mL) (C) by co-culturing with 150 μg/mL of individual protein amino acids. Each value represents the mean±SE of 8 to 18 determinations for (B) and 4 to 9 determinations for (C). a, P<0.01; c, P<0.001 versus meta- or ortho-tyrosine. Data with saline was similar to data obtained with each amino acid alone.
Fractionation of serum from mice bearing a subcutaneous LB tumor (size≧2,000 mm^3) was carried out through several steps of purification (FIG. 1). Serum from normal mice was similarly fractioned as control. At all stages of the purification, the presence of the inhibitory factor was monitored by the [^3H]-thymidine uptake assay as a measure of LB tumor cell proliferation. First, serum was decomplemented and subjected to dialysis. The inhibitory factor was recovered only in the dialyzable fraction (MW<12,500 Da) and was then concentrated by lyophilization and applied successively to Sephadex G-25 and G-15 chromatographic columns, where activity was recovered at fractions corresponding to a molecular weight below 1,000 Da. These fractions were lyophilized and further purified with an HPLC column C18 in a gradient of acetonitrile in TFA (first HPLC). In 12 similar and independent experiments, growth inhibitory activity was systematically recovered in only 1 fraction eluted at near 20% acetonitrile (FIG. 2).
To test directly whether a “cocktail” of amino acids similar to that detected close to the “primary site” was more counteracting of the antitumor effects produced by m- and o-tyrosine than a “secondary site cocktail,” different concentrations of a mixture of m-tyrosine and o-tyrosine (ratio 1:1) were assayed on LB tumor cell proliferation, alone or together with a primary or a secondary site cocktail of amino acids.

[2] = tested on: CEI tumor cells; assay: In vitro proliferation of CEI tumor cells; type: cell-based; settings: dose-dependent, not shown
[3] = tested on: C7HI tumor cells; assay: In vitro proliferation of C7HI tumor cells; type: cell-based; settings: dose-dependent, not shown
[4] = tested on: MC-C tumor; assay: In vivo growth of s.c. MC-C fibrosarcoma implants; set-up: species or system mice; settings: for effect on growth of MC-C tumor implants: mouse, in vivo
Protocol: Twelve mice received a s.c. implant of 5×10^6 MC-C tumor cells in the right flank and 25 days later they received a secondary implant of 2×10^6 MC-C tumor cells in the left flank. […] The remaining 6 mice received 0.2 ml of phenylalanine (500 μg/ml) at the site of the secondary implant, daily, for 19 days, starting 1 hour later than the secondary implant. These secondary implants grew as in 6 controls only receiving the implant in the left flank (tumor volumes of secondary tumor+phenylalanine and of controls, 20 days after the implant in the left flank were =680±152 mm^3 and 524±88 mm^3, respectively). […] Significance: Secondary tumor vs. control: p<0.01; vs. secondary tumor+phenylalanine: p<0.02. Control+m-tyrosine vs. control and vs. secondary tumor+phenylalanine: p<0.02.

[5] = tested on: ERK1 and ERK2; assay: Western blot of p-ERK 1/2 in LB tumor cells; type: cell-based, mice; settings: LB cells cultured 3 minutes with m-tyrosine (250 μg/mL)
Protocol: (§1) FIG. 8 illustrates the effect of meta-tyrosine on the expression of phosphorylated (p)-Erk 1/2 and p-STAT3 in LB tumor cells using Western blot: 3×10^5 LB tumor cells in 0.1 mL of medium were cultured in the presence of 0.1 mL of meta-tyrosine (m-Tyr; 250 μg/mL), phenylalanine (Phe, 250 μg/mL), meta-tyrosine (250 μg/mL)+phenylalanine (250 μg/mL), or saline for 3 minutes (to measure p-ERK 1/2) or for 8 hours (to measure p-STAT3). Positive control was obtained by treating LB cells with pervanadate. Controls with acting, total ERK 1/2, and total STAT3 were also added. FIG. 8A illustrates a representative experiment showing p-ERK 1/2 expression. FIG. 8B is a histogram showing the mean of 5 experiments; a, P<0.01 versus saline and versus meta-tyrosine+phenylalanine; P<0.02 versus phenylalanine. FIG. 8C illustrates a representative experiment showing p-STAT3 expression. […]
(§2) On this basis, we analyzed, first, the effect of m-tyrosine on ERK1 and ERK2 as 2 examples of protein kinases that are activated by the mitogen activated protein/extracellular signal-regulated kinase (MAP/ERK) signal transduction pathway that normally couples intracellular responses associated with cell proliferation, to the binding of growth factors to cell surface receptors (Kohno M, and Pouyssegur J. 2006. Targeting the ERK signaling pathway in cancer therapy. Ann Med; 38:200-211). […]

[6] = tested on: STAT3; assay: Western blot of p-STAT3 in LB tumor cells; type: cell-based, mice; settings: LB cells cultured 8 hours with m-tyrosine (250 μg/mL)
Protocol: as §1, §2

[7] = Evaluation of toxicity of the tyrosine isomers; type: in vivo, mice; settings: for health of mice after three weeks of treatment / hematologic populations of the blood or the spleen / histological alterations in analyzed tissues / anti-RRC antibody levels: higher dose; for histological alterations in analyzed tissues: three weeks of treatment; for anti-RRC antibody levels: tumor bearing mice and normal mice
Protocol: The effect of meta-tyrosine and ortho-tyrosine on the immune response triggered by a conventional antigen was evaluated. Ram red cells (RRC) were used.

[8] = tested on: LB tumor; assay: In vivo growth of s.c. LB tumor implants (primary, secondary under CR, established, ascitic); set-up: species or system mice; settings: for inhibition of tumor cells in euthymic versus nude mice: mouse, in vivo
[9] = tested on: Chinese-hamster ovary (CHO) cells; settings: cited from earlier work; for toxicity to CHO cells: incubated in vitro for 7-10 days

| SMILES | IC50 [1] | reversibility of the inhibitory effect [1] | inhibitory effect of m-tyrosine relative to o-tyrosine ([1]; in vitro LB tumor cell proliferation) | in vitro proliferation of CEI tumor cells [2] | in vitro proliferation of C7HI tumor cells [3] | tumor volume 20 days after the implant in the left flank ([4]; MC-C implant in left flank only, 0.2 ml of 500 μg/ml daily for 19 days at the site of the implant) | effect on growth of MC-C tumor implants [4] | activation of ERK1 and ERK2 (p-ERK 1/2 expression) [5] | activation of STAT3 (p-STAT3 expression) [6] | toxic side effects in tumor-bearing mice ([7]; during treatment of MC-C, CEI and C7HI tumors) | health of mice after three weeks of treatment [7] | hematologic populations of the blood or the spleen [7] | histological alterations in analyzed tissues [7] | anti-RRC antibody levels [7] | inhibition of tumor cells in euthymic versus nude mice [8] | effect on ascitic LB tumor cells ([8]; not shown) | toxicity to CHO cells [9] | CHO cells alive 10 days after start of the in vitro culture ([9]; treated with meta-tyrosine) |
| --- | --- | --- | --- | --- | --- | --- | --- | --- | --- | --- | --- | --- | --- | --- | --- | --- | --- | --- |
| NC(Cc1cccc(O)c1)C(=O)O (centres unmarked) [meta-tyrosine, 3-hydroxyphenylalanine] | 4.5 ± 0.9 µg/mL (≈ 24.8 µM) | reversible | about 10 times | inhibited | inhibited | 212±57 mm^3 | sharp inhibitory effects | significantly reduced | significantly reduced | without exhibiting toxic side effects | remained in good health | did not affect | no histological alterations | does not affect | Identical inhibition | inhibitory | toxic | 70% |
| NC(Cc1ccccc1O)C(=O)O (centres unmarked) [ortho-tyrosine, 2-hydroxyphenylalanine] | 46.7 ± 5.2 µg/mL (≈ 258 µM) | reversible | – | inhibited | inhibited | – | inhibitory | – | – | – | remained in good health | did not affect | no histological alterations | does not affect | Identical inhibition | – | toxic | – |
